Assay results: patent US20230077362A1 (CORTEVA AGRISCIENCE LLC, priority 2019, published 2023)
Like-named read-outs stand apart in the source and are kept apart here.

Experiments:
Format in all cases: in vivo
[1] = system: Green Peach Aphid ("GPA") (Myzus persicae), wingless adult and nymph stages; assay: Bioassay on green peach aphid (GPA), foliar spray on infested cabbage seedlings; settings: Myzus persicae, foliar, 72 h
Experimental: Certain molecules disclosed in this document were tested against GPA using procedures described in the following example. In the reporting of the results, the “GPA Rating Table” was used (See Table Section).
Cabbage seedlings grown in 3-inch pots, with 2-3 small (3-5 cm) true leaves, were used as test substrate. The seedlings were infested with 20-50 GPA (wingless adult and nymph stages) one day prior to chemical application. Four pots with individual seedlings were used for each treatment. Test compounds (2 mg) were dissolved in 2 mL of acetone/methanol (1:1) solvent, forming stock solutions of 1000 ppm test compound. […] A hand-held aspirator-type sprayer was used for spraying a solution to both sides of […] leaves until runoff. Reference plants (solvent check) were sprayed with the diluent only containing 20% by volume of acetone/methanol (1:1) solvent. Treated plants were held in a holding room for three days at approximately 25° C. and ambient relative humidity (RH) prior to grading. Evaluation was conducted by counting the number of live aphids per plant under a microscope.
Corrected % Control=100*(X−Y)/X • where • X=No. of live aphids on solvent check plants and • Y=No. of live aphids on treated plants
The results are indicated in the table entitled “Table ABC: Biological Results” (See Table Section).

[2] = system: Cabbage Looper (Trichoplusia ni) ("CL"), second instar larvae; assay: Bioassay on cabbage looper (CL), 128-well diet tray assay; settings: Trichoplusia ni
Procedure, shortened: (§1)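 Sealed trays, 25° C., 14:10 light:dark, 5–7 d. Per-well % mortality recorded, mean of eight wells reported.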

[3] = system: Beet Armyworm (Spodoptera exigua) ("BAW"), second instar larvae; assay: Bioassay on beet armyworm (BAW), 128-well diet tray assay; settings: Spodoptera exigua
Procedure, shortened: as §1

[4] = read-out: GPA (Biological Results, rating)
[5] = read-out: CL (Biological Results, rating)
[6] = read-out: BAW (Biological Results, rating)

| Compound | pest or weed control at 200 µg/mL ([1]; read-out: GPA rating) [%] | pest or weed control at 50 µg/cm2 ([2]; read-out: CL rating) [%] | pest or weed control at 50 µg/cm2 ([3]; read-out: BAW rating) [%] | pest or weed control at 200 µg/mL [1, 4] [%] | pest or weed control at 50 µg/cm2 [2, 5] [%] | pest or weed control at 50 µg/cm2 [3, 6] [%] |
| --- | --- | --- | --- | --- | --- | --- |
| COC(c1ccc(C)cc1N1C(=O)CS/C1=N\C(=O)Nc1ccc(-c2cn(-c3ccc(S(=O)(=O)C(F)(F)F)cc3)cn2)cc1F)C(F)(F)F (stereo not drawn) [Compound J649, (Z)-1-(2-Fluoro-4-(1-(4-((trifluoromethyl)sulfonyl)phenyl)-1H-imidazol-4-yl)phenyl)-3-(3-(5-methyl-2-(2,2,2-trifluoro-1-methoxyethyl)phenyl)-4-oxothiazolidin-2-ylidene)urea] | 0 to 80 | 50 to 100 | 50 to 100 |  |  |  |
| Cc1ccc(COCC(F)(F)F)c(N2C(=O)CS/C2=N\C(=O)Nc2ccc(-c3ncn(-c4ccc(OC(F)(F)F)cc4)n3)cc2Cl)c1 [Compound J194, (Z)-1-(2-Chloro-4-(1-(4-(trifluoromethoxy)phenyl)-1H-1,2,4-triazol-3-yl)phenyl)-3-(3-(5-methyl-2-((2,2,2-trifluoroethoxy)methyl)phenyl)-4-oxothiazolidin-2-ylidene)urea] |  |  |  | 0 to 80 | 50 to 100 | 50 to 100 |
| Cc1ccc(-n2cnc(-c3ccc(NC(=O)/N=C4\SCC(=O)N4c4cc(C)ccc4OCCC(F)(F)F)c(F)c3)n2)cc1 [Compound J151, (Z)-1-(2-Fluoro-4-(1-(p-tolyl)-1H-1,2,4-triazol-3-yl)phenyl)-3-(3-(5-methyl-2-(3,3,3-trifluoropropoxy)phenyl)-4-oxothiazolidin-2-ylidene)urea] |  |  |  | 0 to 80 | 50 to 100 | 50 to 100 |
| Cc1ccc(C(C)C)c(N2C(=O)CS/C2=N\C(=O)Nc2ccc(-c3ncn(-c4ccc(OCC#N)cc4)n3)cc2F)c1 [Compound J344, (Z)-1-(4-(1-(4-(Cyanomethoxy)phenyl)-1H-1,2,4-triazol-3-yl)-2-fluorophenyl)-3-(3-(2-isopropyl-5-methylphenyl)-4-oxothiazolidin-2-ylidene)urea] |  |  |  | 0 to 80 | 50 to 100 | 50 to 100 |
| Cc1ccc(COCC(F)(F)F)c(N2C(=O)CS/C2=N\C(=O)Nc2ccc(-c3ncn(-c4ccc(OC(F)(F)F)cc4)n3)cc2F)c1 [Compound J123, (Z)-1-(2-fluoro-4-(1-(4-(trifluoromethoxy)phenyl)-1H-1,2,4-triazol-3-yl)phenyl)-3-(3-(5-methyl-2-((2,2,2-trifluoroethoxy)methyl)phenyl)-4-oxothiazolidin-2-ylidene)urea] |  |  |  | 0 to 80 | 50 to 100 | 50 to 100 |
| COc1ccc(C(C)C)c(N2C(=O)CS/C2=N\C(=O)Nc2ccc(-c3ncn(-c4ccc(OC(F)(F)F)cc4)n3)cc2F)c1 [Compound J312] |  |  |  | 0 to 80 | 50 to 100 | 50 to 100 |
| CCCc1ccc(N(C)C)cc1N1C(=O)CS/C1=N\C(=O)Nc1ccc(-c2ncn(-c3ccc(OC(F)(F)F)cc3)n2)cc1F [Compound J196, (Z)-1-(3-(5-(Dimethylamino)-2-propylphenyl)-4-oxothiazolidin-2-ylidene)-3-(2-fluoro-4-(1-(4-(trifluoromethoxy)phenyl)-1H-1,2,4-triazol-3-yl)phenyl)urea] |  |  |  | 0 to 80 | 50 to 100 | 50 to 100 |
| CCc1cc(-c2ncn(-c3ccc(OC(F)(F)F)cc3)n2)ccc1NC(=O)/N=C1\SCC(=O)N1c1cc(OC)ccc1C(C)C [Compound J71, (Z)-1-(2-Ethyl-4-(1-(4-(trifluoromethoxy)phenyl)-1H-1,2,4-triazol-3-yl)phenyl)-3-(3-(2-isopropyl-5-methoxyphenyl)-4-oxothiazolidin-2-ylidene)urea] |  |  |  | 0 to 80 | 50 to 100 | 50 to 100 |
| Cc1ccc(OCCC(F)(F)F)c(N2C(=O)CS/C2=N\C(=O)Nc2ccc(-c3ncn(-c4ccc(C#N)cc4)n3)cc2F)c1 [Compound J288, (Z)-1-(4-(1-(4-Cyanophenyl)-1H-1,2,4-triazol-3-yl)-2-fluorophenyl)-3-(3-(5-methyl-2-(3,3,3-trifluoropropoxy)phenyl)-4-oxothiazolidin-2-ylidene)urea] |  |  |  | 0 to 80 | 50 to 100 | 50 to 100 |
| Cc1ccc(C(F)(F)F)c(N2C(=O)C(Cl)S/C2=N\C(=O)NCC(F)c2ccc(-c3ncn(-c4ccc(OC(F)(F)F)cc4)n3)cc2)c1 (stereo not drawn) [Compound H7] |  |  |  | 0 to 80 | 50 to 100 | 50 to 100 |
| Cc1ccc(COCC(F)(F)F)c(N2C(=O)CS/C2=N\C(=O)Nc2ccc(-c3ncn(-c4ccc(OC(F)(F)F)cc4)n3)cc2C)c1 [Compound J139, (Z)-1-(3-(5-Methyl-2-((2,2,2-trifluoroethoxy)methyl)phenyl)-4-oxothiazolidin-2-ylidene)-3-(2-methyl-4-(1-(4-(trifluoromethoxy)phenyl)-1H-1,2,4-triazol-3-yl)phenyl)urea] |  |  |  | 0 to 80 | 50 to 100 | 50 to 100 |
| Cc1cc(-c2ncn(-c3cccc(C(F)(F)F)c3)n2)ccc1NC(=O)/N=C1\SCC(=O)N1c1cc(N(C)C)ccc1C(C)C [Compound J133, (Z)-1-(3-(5-(Dimethylamino)-2-isopropylphenyl)-4-oxothiazolidin-2-ylidene)-3-(2-methyl-4-(1-(3-(trifluoromethyl)phenyl)-1H-1,2,4-triazol-3-yl)phenyl)urea] |  |  |  | 0 to 80 | 50 to 100 | 50 to 100 |
| CCOC(C)c1ccc(C)cc1N1C(=O)CS/C1=N\C(=O)Nc1ccc(-c2ncn(-c3ccc(OC(F)(F)F)cc3)n2)cc1C (stereo not drawn) [Compound J141, (Z)-1-(3-(2-(1-Ethoxyethyl)-5-methylphenyl)-4-oxothiazolidin-2-ylidene)-3-(2-methyl-4-(1-(4-(trifluoromethoxy)phenyl)-1H-1,2,4-triazol-3-yl)phenyl)urea] |  |  |  | 0 to 80 | 50 to 100 | 50 to 100 |
| Cc1ccc(COCC(F)(F)F)c(N2C(=O)CS/C2=N\C(=O)Nc2ccc(-c3ncn(-c4ccc(C(F)(F)F)cc4)n3)cc2F)c1 [Compound J168, (Z)-1-(2-Fluoro-4-(1-(4-(trifluoromethyl)phenyl)-1H-1,2,4-triazol-3-yl)phenyl)-3-(3-(5-methyl-2-((2,2,2-trifluoroethoxy)methyl)phenyl)-4-oxothiazolidin-2-ylidene)urea] |  |  |  | 0 to 80 | 50 to 100 | 50 to 100 |
| CCNc1ccc(C(C)C)c(N2C(=O)CS/C2=N\C(=O)Nc2ccc(-c3ncn(-c4ccc(OC(F)(F)F)cc4)n3)cc2C)c1 [Compound J127, (Z)-1-(3-(5-(Ethylamino)-2-isopropylphenyl)-4-oxothiazolidin-2-ylidene)-3-(2-methyl-4-(1-(4-(trifluoromethoxy)phenyl)-1H-1,2,4-triazol-3-yl)phenyl)urea] |  |  |  | 0 to 80 | 50 to 100 | 50 to 100 |
| Cc1ccc(C(C)C)c(N2C(=O)CS/C2=N\C(=O)Nc2ccc(-c3ncn(-c4cccc(OC(F)(F)F)c4)n3)cc2C)c1 [Compound J135, (Z)-1-(3-(2-Isopropyl-5-methylphenyl)-4-oxothiazolidin-2-ylidene)-3-(2-methyl-4-(1-(3-(trifluoromethoxy)phenyl)-1H-1,2,4-triazol-3-yl)phenyl)urea] |  |  |  | 0 to 80 | 50 to 100 | 50 to 100 |
| Cc1ccc(C(C)C)c(N2C(=O)CS/C2=N\C(=O)Nc2ccc(-c3ncn(-c4cccc(OC(F)(F)F)c4)n3)cc2)c1 [Compound J327, (Z)-1-(3-(2-Isopropyl-5-methylphenyl)-4-oxothiazolidin-2-ylidene)-3-(4-(1-(3-(trifluoromethoxy)phenyl)-1H-1,2,4-triazol-3-yl)phenyl)urea] |  |  |  | 0 to 80 | 50 to 100 | 50 to 100 |
| COC(C)c1ccc(C)cc1N1C(=O)CS/C1=N\C(=O)Nc1ccc(-c2ncn(-c3ccc(SC(F)(F)F)cc3)n2)cc1Cl (stereo not drawn) [Compound J232, (Z)-1-(2-Chloro-4-(1-(4-((trifluoromethyl)thio)phenyl)-1H-1,2,4-triazol-3-yl)phenyl)-3-(3-(2-(1-methoxyethyl)-5-methylphenyl)-4-oxothiazolidin-2-ylidene)urea] |  |  |  | 0 to 80 | 50 to 100 | 50 to 100 |
| Cc1ccc(COCC(F)F)c(N2C(=O)CS/C2=N\C(=O)Nc2ccc(-c3cn(-c4ccc(S(=O)(=O)C(F)(F)F)cc4)cn3)cc2F)c1 [Compound J648, (Z)-1-(3-(2-((2,2-Difluoroethoxy)methyl)-5-methylphenyl)-4-oxothiazolidin-2-ylidene)-3-(2-fluoro-4-(1-(4-((trifluoromethyl)sulfonyl)phenyl)-1H-imidazol-4-yl)phenyl)urea] | 0 to 80 | 50 to 100 | 50 to 100 |  |  |  |
